Experimental data: PubChem BioAssay (NCI)
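48-hour exposure; five concentrations; linearly interpolated endpoints. Definition used: TGI = concentration required for complete inhibition of growth.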

Experiments:
Experiment in all cases: NCI-60 cell line screen, 48 h
[1] = system: 786-0 renal
[2] = system: A498 renal
[3] = system: A549 NSCLC
[4] = system: ACHN renal
[5] = system: CAKI-1 renal
[6] = system: CCRF-CEM leukemia
[7] = system: COLO 205 colon
[8] = system: DU-145 prostate
[9] = system: EKVX NSCLC
[10] = system: HCC-2998 colon
[11] = system: HCT-116 colon
[12] = system: HCT-15 colon
[13] = system: HL-60(TB) leukemia
[14] = system: HOP-62 NSCLC
[15] = system: HOP-92 NSCLC
[16] = system: HS 578T breast
[17] = system: HT29 colon
[18] = system: IGROV1 ovarian
[19] = system: K-562 leukemia
[20] = system: KM12 colon
[21] = system: LOX IMVI melanoma
[22] = system: M14 melanoma
[23] = system: MALME-3M melanoma
[24] = system: MCF7 breast
[25] = system: MDA-MB-231 breast
[26] = system: MDA-MB-435
[27] = system: MDA-N
[28] = system: MOLT-4 leukemia
[29] = system: NCI-H226 lung
[30] = system: NCI-H23 lung
[31] = system: NCI-H460 lung
[32] = system: NCI-H522 lung
[33] = system: NCI/ADR-RES ovarian
[34] = system: OVCAR-3 ovarian
[35] = system: OVCAR-4 ovarian
[36] = system: OVCAR-5 ovarian
[37] = system: OVCAR-8 ovarian
[38] = system: PC-3 prostate
[39] = system: RPMI-8226 leukemia
[40] = system: RXF 393 renal
[41] = system: SF-268 CNS
[42] = system: SF-295 CNS
[43] = system: SF-539 CNS
[44] = system: SK-MEL-2 melanoma
[45] = system: SK-MEL-28 melanoma
[46] = system: SK-MEL-5 melanoma
[47] = system: SK-OV-3 ovarian
[48] = system: SN12C renal
[49] = system: SNB-19 CNS
[50] = system: SNB-75 CNS
[51] = system: SW-620 colon
[52] = system: T-47D breast
[53] = system: TK-10 renal
[54] = system: U251 CNS
[55] = system: UACC-257 melanoma
[56] = system: UACC-62 melanoma
[57] = system: UO-31 renal
[58] = system: SR leukemia
[59] = system: BT-549 breast

Measured: TGI

CC(=O)N1CN2C(=O)CCC2c2cc(C)ccc21 (stereo not drawn)
not listed: [58] | [59]
> 100 µM: all other assays above

C/C(=C\C(=O)O)C(=O)N(C)c1ccccc1I
not listed: [13] | [17] | [18] | [32] | [43] | [53] | [59]
> 100 µM: all other assays above

CCOC(=O)CCC(NC(=O)c1ccc(NCc2ccc3nc(OC)c(OC)nc3c2)c2ccccc12)C(=O)OCC (stereo not drawn)
97.7 µM: [15]
56.5 µM: [43]
not listed: [6] | [16] | [39] | [58]
> 100 µM: all other assays above

Nc1ccc2c3c1cccc3c(=O)n1c3ccc(Cc4ccc5c(c4)nc4c6ccc(N)c7cccc(c(=O)n54)c76)cc3nc21
not listed: [12] | [16] | [41] | [52] | [53]
> 100 µM: all other assays above
